Where a SMILES comes first, the peptide text is derived from it. [ ]: non-standard residue; d: D form. The star is where a group is joined. Nle = CCCC[C@H](N)C(=O)O; Bz = O=C(c1ccccc1)*
Experiments:
[1] = Blood pressure in rats (mean carotid blood pressure, urethane-anesthetized rat); format: in vivo; settings: general procedure set forth in Example III
Experimental: Plasma levels of ACTH and β-END-LI are elevated for at least 5-20 minutes following the intravenous administration of CRF to nembutal-anesthesized male rats and to quiescent male or female rats with indwelling intravenous cannulae. […] Mean cartoid blood pressure in a urethane-anesthesized rat fell from 87 to 72±2 mm Hg and remained at that level for 30 minutes following an injection equal to 3 μg CRF/Kg body weight; the subsequent administration of an injection equal to 30 μg CRF/Kg body weight lowered mean blood pressure to 42±3 mm Hg for more than 2 hours.

[2] = tested on: cultured rat pituitary cells; assay: Secretion of ACTH and β-endorphin by cultured rat pituitary cells; format: cell-based; settings: general procedure set forth in Example III; in vitro or in vivo not specified
Experimental: The synthetic and the natural CRF were examined for their effects on the secretion of ACTH and β-endorphin in vitro and the synthetic CRF was also examined in vivo. The high potency of synthetic and natural CRF to stimulate the secretion of ACTH and β-endorphin by cultured rat pituitary cells was measured. […] The secretory response to maximal (>5 nM) concentrations of CRF is at a plateau level. In vivo doses from 30 ng to 3 μg/Kg of body weight rapidly elevated ACTH and β-endorphin-like (β-END-LI) secretions 5-20 fold.

## H-SQEPPISLDLTFHLLREVIEMTKAEQLAQQAHSNRKLLDIA-NH2 [[Ile^19, Glu^25]-CRF]
[1]
  Lowering of blood pressure (in words): very significant lowering of blood pressure
[2]
  Stimulation of secretion of ACTH and β-END-LI (in words): stimulates the secretion of ACTH and β-END-LI

## CC[C@H](C)[C@H](NC(=O)[C@H](CC(=O)O)NC(=O)[C@H](CC(C)C)NC(=O)[C@H](CC(C)C)NC(=O)[C@H](CCCCN)NC(=O)[C@H](CCCNC(=N)N)NC(=O)[C@H](CC(N)=O)NC(=O)[C@H](CO)NC(=O)[C@H](Cc1c[nH]cn1)NC(=O)[C@H](C)NC(=O)[C@H](CCC(N)=O)NC(=O)[C@H](CCC(N)=O)NC(=O)[C@H](C)NC(=O)[C@H](CC(C)C)NC(=O)[C@H](CCC(N)=O)NC(=O)[C@H](CC(=O)O)NC(=O)[C@H](C)NC(=O)[C@H](CCCCN)NC(=O)[C@@H](NC(=O)[C@H](CCSC)NC(=O)[C@H](CCC(=O)O)NC(=O)[C@H](CC(C)C)NC(=O)[C@@H](NC(=O)[C@H](CCC(=O)O)NC(=O)[C@H](CCCNC(=N)N)NC(=O)[C@H](CC(C)C)NC(=O)[C@H](CC(C)C)NC(=O)[C@H](Cc1c[nH]cn1)NC(=O)[C@H](CC(C)C)NC(=O)[C@@H](NC(=O)[C@H](CC(C)C)NC(=O)[C@H](CC(=O)O)NC(=O)[C@H](CC(C)C)NC(=O)[C@H](CO)NC(=O)[C@@H](NC(=O)[C@@H]1CCCN1C(=O)[C@@H]1CCCN1C(=O)[C@H](CCC(=O)O)NC(=O)[C@H](C)NC(=O)c1ccccc1)[C@@H](C)CC)[C@@H](C)O)C(C)C)[C@@H](C)O)C(=O)N[C@@H](C)C(N)=O [[Benzoyl-Ala^1, des Gln^2, Leu^12]-CRF] (Bz-AEPPISLDLTLHLLREVLEMTKADQLAQQAHSNRKLLDIA-NH2)
[1]
  Lowering of blood pressure (in words): very significant lowering of blood pressure
[2]
  Stimulation of secretion of ACTH and β-END-LI (in words): stimulates the secretion of ACTH and β-END-LI

## H-SQEPPISLDLTFHLLREVLE[Nle]TKADQLAQQAYSNRKLLDIA-NH2 [[Nle^21, Tyr^32]-CRF]
[1]
  Lowering of blood pressure (in words): very significant lowering of blood pressure to a greater extent than CRF
[2]
  Stimulation of secretion of ACTH and β-END-LI (in words): stimulates the secretion of ACTH and β-END-LI

## H-SQEPPISLDLTFHLLREVLEATKADQLAQQAHTNRKLLDI[Nle]-NH2 [[Ala^21, Thr^33, Nle^41]-CRF]
[1]
  Lowering of blood pressure (in words): very significant lowering of blood pressure
[2]
  Stimulation of secretion of ACTH and β-END-LI (in words): stimulates the secretion of ACTH and β-END-LI

## CC[C@H](C)[C@H](NC(=O)[C@H](CC(=O)O)NC(=O)[C@H](CC(C)C)NC(=O)[C@H](CC(C)C)NC(=O)[C@H](CCCCN)NC(=O)[C@H](CCCNC(=N)N)NC(=O)[C@H](CC(N)=O)NC(=O)[C@H](CO)NC(=O)[C@H](Cc1c[nH]cn1)NC(=O)[C@H](C)NC(=O)[C@H](CCC(N)=O)NC(=O)[C@H](CCC(N)=O)NC(=O)[C@H](C)NC(=O)[C@H](CC(C)C)NC(=O)[C@H](CCC(N)=O)NC(=O)[C@H](CC(=O)O)NC(=O)[C@H](C)NC(=O)[C@H](CCCCN)NC(=O)[C@@H](NC(=O)[C@H](CCSC)NC(=O)[C@H](CCC(=O)O)NC(=O)[C@H](CC(C)C)NC(=O)[C@@H](NC(=O)[C@H](CCC(=O)O)NC(=O)[C@H](CCCNC(=N)N)NC(=O)[C@H](CC(C)C)NC(=O)[C@H](CC(C)C)NC(=O)[C@H](Cc1c[nH]cn1)NC(=O)[C@H](Cc1ccccc1)NC(=O)[C@@H](NC(=O)[C@H](CC(C)C)NC(=O)[C@H](CC(=O)O)NC(=O)[C@H](CC(C)C)NC(=O)[C@H](CO)NC(=O)[C@@H](NC(=O)[C@@H]1CCCN1C(=O)[C@@H]1CCCN1C(C)=O)[C@@H](C)CC)[C@@H](C)O)C(C)C)[C@@H](C)O)C(=O)N[C@@H](C)C(N)=O [[Acetyl-Pro^4]-CRF]
[1]
  Lowering of blood pressure (in words): very significant lowering of blood pressure to a greater extent than CRF
[2]
  Stimulation of secretion of ACTH and β-END-LI (in words): stimulates the secretion of ACTH and β-END-LI

## CC[C@H](C)[C@H](NC(=O)[C@H](CC(=O)O)NC(=O)[C@H](CC(C)C)NC(=O)[C@H](CC(C)C)NC(=O)[C@H](CCCCN)NC(=O)[C@H](CCCNC(=N)N)NC(=O)[C@H](CC(N)=O)NC(=O)[C@H](CO)NC(=O)[C@H](Cc1c[nH]cn1)NC(=O)[C@H](C)NC(=O)[C@H](CCC(N)=O)NC(=O)[C@H](CCC(N)=O)NC(=O)[C@H](C)NC(=O)[C@H](CC(C)C)NC(=O)[C@H](CCC(N)=O)NC(=O)[C@H](CC(=O)O)NC(=O)[C@H](C)NC(=O)[C@H](CCCCN)NC(=O)[C@@H](NC(=O)[C@H](CCSC)NC(=O)[C@H](CCC(=O)O)NC(=O)[C@H](CC(C)C)NC(=O)[C@@H](NC(=O)[C@H](CCC(=O)O)NC(=O)[C@H](CCCNC(=N)N)NC(=O)[C@H](CC(C)C)NC(=O)[C@H](CC(C)C)NC(=O)[C@H](Cc1c[nH]cn1)NC(=O)[C@H](Cc1ccccc1)NC(=O)[C@@H](NC(=O)[C@H](CC(C)C)NC(=O)[C@H](CC(=O)O)NC(=O)[C@H](CC(C)C)NC(=O)[C@H](CO)NC(=O)[C@@H](NC(=O)[C@@H]1CCCN1C(=O)[C@@H]1CCCN1C(=O)[C@H](CCC(=O)O)NC(=O)[C@H](CCC(N)=O)NC(=O)[C@@H](N)CO)[C@@H](C)CC)[C@@H](C)O)C(C)C)[C@@H](C)O)C(N)=O [[des Ala^41]-CRF] (H-SQEPPISLDLTFHLLREVLEMTKADQLAQQAHSNRKLLDI-NH2)
[1]
  Lowering of blood pressure (in words): very significant lowering of blood pressure
[2]
  Stimulation of secretion of ACTH and β-END-LI (in words): stimulates the secretion of ACTH and β-END-LI

## CC[C@H](C)[C@H](NC(=O)[C@H](CC(=O)O)NC(=O)[C@H](CC(C)C)NC(=O)[C@H](CC(C)C)NC(=O)[C@H](CCCCN)NC(=O)[C@H](CCCNC(=N)N)NC(=O)[C@H](CC(N)=O)NC(=O)[C@H](CO)NC(=O)[C@H](Cc1c[nH]cn1)NC(=O)[C@H](C)NC(=O)[C@H](CCC(N)=O)NC(=O)[C@H](CCC(N)=O)NC(=O)[C@H](C)NC(=O)[C@H](CC(C)C)NC(=O)[C@H](CCC(N)=O)NC(=O)[C@H](CC(=O)O)NC(=O)[C@H](C)NC(=O)[C@H](CCCCN)NC(=O)[C@@H](NC(=O)[C@H](CCSC)NC(=O)[C@H](CCC(=O)O)NC(=O)[C@H](CC(C)C)NC(=O)[C@@H](NC(=O)[C@H](CCC(=O)O)NC(=O)[C@H](CCCNC(=N)N)NC(=O)[C@H](CC(C)C)NC(=O)[C@H](CC(C)C)NC(=O)[C@H](Cc1c[nH]cn1)NC(=O)[C@H](Cc1ccccc1)NC(=O)[C@@H](NC(=O)[C@H](CC(C)C)NC(=O)[C@H](CC(=O)O)NC(=O)[C@H](CC(C)C)NC(=O)[C@H](CO)NC(=O)[C@@H](NC(=O)[C@@H]1CCCN1C(=O)[C@@H]1CCCN1C(=O)[C@H](CCC(=O)O)NC(=O)[C@H](CCC(N)=O)NC(=O)[C@H](C)NC(C)=O)[C@@H](C)CC)[C@@H](C)O)C(C)C)[C@@H](C)O)C(=O)N[C@@H](C)C(N)=O [[Acetyl-Ala^1]-CRF]
[1]
  Lowering of blood pressure (in words): very significant lowering of blood pressure
[2]
  Stimulation of secretion of ACTH and β-END-LI (in words): stimulates the secretion of ACTH and β-END-LI

## H-SQEPPISIDLSFHLLREVLEMTKADQLAQQAHNNRKLLDIA-NH2 [[Ile^8, Ser^11, Asn^33]-CRF]
[1]
  Lowering of blood pressure (in words): very significant lowering of blood pressure
[2]
  Stimulation of secretion of ACTH and β-END-LI (in words): stimulates the secretion of ACTH and β-END-LI

## CC[C@H](C)[C@H](NC(=O)[C@@H](NC(=O)[C@H](CC(=O)O)NC(=O)[C@H](CC(C)C)NC(=O)[C@H](CC(C)C)NC(=O)[C@H](CC(C)C)NC(=O)[C@H](CCCNC(=N)N)NC(=O)[C@H](CC(N)=O)NC(=O)[C@H](CC(N)=O)NC(=O)[C@H](C)NC(=O)[C@H](C)NC(=O)[C@H](CCC(N)=O)NC(=O)[C@H](CCC(N)=O)NC(=O)[C@H](CCCCN)NC(=O)CNC(=O)[C@H](CCCCN)NC(=O)[C@H](CCC(=O)O)NC(=O)[C@H](CCC(N)=O)NC(=O)[C@H](CCCCN)NC(=O)[C@H](CCC(=O)O)NC(=O)[C@@H](NC(=O)[C@H](CCC(=O)O)NC(=O)[C@@H](NC(=O)[C@H](CCSC)NC(=O)[C@H](CCCCN)NC(=O)[C@H](CCCNC(=N)N)NC(=O)[C@H](CC(C)C)NC(=O)[C@H](CC(C)C)NC(=O)[C@H](CCC(=O)O)NC(=O)[C@H](CC(C)C)NC(=O)[C@H](CO)NC(=O)[C@H](CC(C)C)NC(=O)[C@H](CC(=O)O)NC(=O)[C@@H](NC(=O)[C@H](CO)NC(=O)[C@@H](NC(=O)[C@@H]1CCCN1C(=O)[C@@H]1CCCN1C(=O)CNC(=O)[C@@H]1CCC(=O)N1)[C@@H](C)CC)[C@@H](C)CC)[C@@H](C)CC)[C@@H](C)CC)[C@@H](C)O)C(N)=O [[Gly^26]-sauvagine]
[1]
  Lowering of blood pressure (in words): very significant lowering of blood pressure
[2]
  Stimulation of secretion of ACTH and β-END-LI (in words): stimulates the secretion of ACTH and β-END-LI

Reference: patent publication US4415558A, “CRF And analogs” (The Salk Institute for Biological Studies, priority 1982, dated 1983)
